# ± gives the standard deviation of the averaged measurements.
# Tests used:
# CABOZANTINIB = compound: COc1cc2nccc(Oc3ccc(NC(=O)C4(C(=O)Nc5ccc(F)cc5)CC4)cc3)c2cc1OC [CABOZANTINIB]; assay: surviving fraction relative to DMSO-only wells; higher = less growth inhibition; conditions: exposure time: 5 days
# In short: (§1)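 In 384-well plates, 250–500 log-phase tumour cells per well were given 24 hours before five days of continuous exposure to inhibitors at 0.5, 1, 5, 10, 50, 100, 500 and 1000 nM. Surviving fraction is luminescence from CellTiter-Glo, normalised to the median of wells containing DMSO alone. Reading took place after 10 minutes at room temperature.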
# [1] = compound: C[C@@H]1CN(CC(=O)Nc2ccc3c(c2)Cc2cccc(-c4cc(=O)cc(N5CCOCC5)o4)c2S3)C[C@H](C)O1; assay: as above; conditions: exposure time: 5 days
# In short: as §1
Test System,surviving fraction (CABOZANTINIB; 0.5 nM),surviving fraction (CABOZANTINIB; 1 nM),surviving fraction (CABOZANTINIB; 5 nM),surviving fraction (CABOZANTINIB; 10 nM),surviving fraction (CABOZANTINIB; 50 nM),surviving fraction (CABOZANTINIB; 100 nM),surviving fraction (CABOZANTINIB; 500 nM),surviving fraction (CABOZANTINIB; 1000 nM),surviving fraction ([1]; 0.5 nM),surviving fraction ([1]; 1 nM),surviving fraction ([1]; 5 nM),surviving fraction ([1]; 10 nM),surviving fraction ([1]; 50 nM),surviving fraction ([1]; 100 nM),surviving fraction ([1]; 500 nM),surviving fraction ([1]; 1000 nM)
MDAMB436 BREAST,0.95 ± 0.067,0.94 ± 0.04,1 ± 0.17,0.973 ± 0.029,1.04 ± 0.096,0.951 ± 0.097,1.04 ± 0.058,1.02 ± 0.11,0.892 ± 0.043,0.962 ± 0.095,0.922 ± 0.027,0.928 ± 0.058,0.858 ± 0.067,0.805 ± 0.068,0.761 ± 0.029,0.611 ± 0.066
MDAMB453 BREAST,1.04 ± 0.049,1.01 ± 0.034,1.09 ± 0.051,1.03 ± 0.052,1.01 ± 0.092,1.06 ± 0.014,1.06 ± 0.062,1.02 ± 0.041,1.02 ± 0.027,0.937 ± 0.054,0.994 ± 0.023,0.966 ± 0.035,0.937 ± 0.023,0.897 ± 0.046,0.9723 ± 0.0063,0.988 ± 0.039
MDAMB468 BREAST,1.04 ± 0.089,1.11 ± 0.044,1.05 ± 0.057,1.09 ± 0.017,1.13 ± 0.067,1.15 ± 0.07,1.05 ± 0.086,1.07 ± 0.092,0.975 ± 0.015,0.921 ± 0.024,0.951 ± 0.026,1 ± 0.025,0.935 ± 0.018,1 ± 0.091,0.824 ± 0.12,0.756 ± 0.076
MFM223 BREAST,1.12 ± 0.16,1.04 ± 0.048,1.12 ± 0.094,1.06 ± 0.086,1.16 ± 0.17,1.22 ± 0.073,1.05 ± 0.029,0.824 ± 0.098,1.17 ± 0.17,1.2 ± 0.037,1.17 ± 0.052,1.19 ± 0.02,0.935 ± 0.1,0.869 ± 0.12,0.885 ± 0.035,0.794 ± 0.1
MG63 BONE,0.966 ± 0.019,1.02 ± 0.042,1.05 ± 0.021,1.03 ± 0.032,1.03 ± 0.019,0.946 ± 0.037,0.724 ± 0.011,0.696 ± 0.031,1.03 ± 0.032,1.03 ± 0.038,1.076 ± 0.0081,1.1 ± 0.04,1.06 ± 0.02,1.08 ± 0.028,0.971 ± 0.025,0.919 ± 0.022
MHM BONE,1.02 ± 0.045,1.01 ± 0.037,1.02 ± 0.026,1.04 ± 0.043,1.044 ± 0.0055,0.99 ± 0.021,0.896 ± 0.022,0.915 ± 0.019,1.03 ± 0.024,1.01 ± 0.055,1.05 ± 0.012,1.05 ± 0.021,1.08 ± 0.0062,1.1 ± 0.018,1.08 ± 0.024,1.07 ± 0.032
NCIH441 LUNG,1.07 ± 0.042,1.02 ± 0.038,1.07 ± 0.036,0.963 ± 0.056,1.07 ± 0.028,1.06 ± 0.021,1.01 ± 0.031,0.845 ± 0.019,1.04 ± 0.092,1.03 ± 0.085,0.957 ± 0.1,1.07 ± 0.062,1.11 ± 0.035,1.11 ± 0.087,1.02 ± 0.056,1.14 ± 0.11
NOS1 BONE,1.09 ± 0.062,1.08 ± 0.012,1.12 ± 0.078,1.16 ± 0.073,0.944 ± 0.029,0.841 ± 0.04,0.68 ± 0.077,0.579 ± 0.041,1.05 ± 0.15,1.07 ± 0.1,1.12 ± 0.13,1.23 ± 0.13,1.047 ± 0.007,1.12 ± 0.15,0.818 ± 0.029,0.661 ± 0.057
NY BONE,0.9253 ± 0.009,0.98 ± 0.036,1.02 ± 0.016,0.989 ± 0.024,0.9377 ± 0.0067,0.887 ± 0.011,0.784 ± 0.022,0.768 ± 0.026,1.04 ± 0.014,1.06 ± 0.021,1.05 ± 0.024,1.07 ± 0.011,1.09 ± 0.043,1.12 ± 0.029,0.9613 ± 0.0029,0.915 ± 0.014
OS25HAL BONE,0.957 ± 0.017,0.963 ± 0.02,1.02 ± 0.021,0.93 ± 0.022,0.941 ± 0.041,0.875 ± 0.029,0.8397 ± 0.0068,0.806 ± 0.068,1.02 ± 0.026,1.02 ± 0.031,1.02 ± 0.022,1.02 ± 0.016,1.019 ± 0.0078,1.01 ± 0.019,1.05 ± 0.02,1.02 ± 0.018
OSHN BONE,1.033 ± 0.005,1.024 ± 0.0035,1.03 ± 0.011,1.02 ± 0.0032,1.006 ± 0.0085,0.958 ± 0.02,0.928 ± 0.015,0.908 ± 0.027,1.06 ± 0.017,1.06 ± 0.029,1.09 ± 0.016,1.07 ± 0.025,1.017 ± 0.0072,1.021 ± 0.0095,1.01 ± 0.019,0.977 ± 0.0061
PCI30 HEADNECK,0.86 ± 0.039,0.864 ± 0.05,0.954 ± 0.066,1.07 ± 0.048,1 ± 0.019,1.03 ± 0.057,0.841 ± 0.036,0.84 ± 0.15,0.947 ± 0.047,0.947 ± 0.054,0.969 ± 0.078,1.04 ± 0.052,1.04 ± 0.064,1.03 ± 0.1,1 ± 0.034,0.867 ± 0.044
RDES SOFT TISSUE,1.2 ± 0.077,1.09 ± 0.1,1.21 ± 0.064,1.13 ± 0.083,1.23 ± 0.12,1.09 ± 0.076,1.1 ± 0.03,1.22 ± 0.22,1.18 ± 0.1,1.15 ± 0.11,0.972 ± 0.078,1.08 ± 0.24,0.759 ± 0.24,0.786 ± 0.23,0.799 ± 0.17,0.912 ± 0.24
S68 BREAST,1.05 ± 0.1,0.948 ± 0.075,0.937 ± 0.071,1.32 ± 0.15,1.2 ± 0.23,1.24 ± 0.41,0.986 ± 0.24,0.889 ± 0.23,1.03 ± 0.2,1.16 ± 0.29,1.09 ± 0.28,1.24 ± 0.22,0.826 ± 0.13,0.79 ± 0.18,0.589 ± 0.086,0.516 ± 0.076
SAOS2 BONE,1.13 ± 0.038,1.12 ± 0.069,1.18 ± 0.12,1.14 ± 0.015,1.17 ± 0.14,1.14 ± 0.14,0.993 ± 0.073,1.01 ± 0.14,1.08 ± 0.037,1.01 ± 0.018,1.07 ± 0.021,1.1 ± 0.051,0.895 ± 0.057,0.977 ± 0.12,0.8487 ± 0.0063,0.774 ± 0.01
SCC003 HEADNECK,0.921 ± 0.063,0.878 ± 0.055,0.97 ± 0.02,0.965 ± 0.047,1.08 ± 0.011,1.04 ± 0.029,0.98 ± 0.03,0.936 ± 0.1,1.06 ± 0.054,1.03 ± 0.013,1.12 ± 0.077,1.08 ± 0.045,0.984 ± 0.033,0.967 ± 0.096,1.04 ± 0.1,0.908 ± 0.091
SCC36 HEADNECK,1.03 ± 0.092,0.961 ± 0.074,1.09 ± 0.066,1.02 ± 0.032,1.1 ± 0.09,1.07 ± 0.073,1.07 ± 0.11,0.88 ± 0.081,0.993 ± 0.025,1.02 ± 0.058,1.09 ± 0.086,1.03 ± 0.026,0.859 ± 0.071,0.896 ± 0.031,0.801 ± 0.045,0.798 ± 0.031
SCC47 HEADNECK,0.891 ± 0.022,0.894 ± 0.019,1.06 ± 0.062,1.03 ± 0.16,1.05 ± 0.14,1.08 ± 0.069,0.844 ± 0.025,0.922 ± 0.041,1.06 ± 0.1,1.04 ± 0.036,1.1 ± 0.057,1.06 ± 0.075,1.04 ± 0.042,1.09 ± 0.04,1.05 ± 0.064,1.12 ± 0.093
SCC90 HEADNECK,0.858 ± 0.053,0.819 ± 0.089,0.9093 ± 0.0042,0.997 ± 0.086,1.09 ± 0.17,1.05 ± 0.15,0.852 ± 0.081,0.874 ± 0.087,1.01 ± 0.16,1.03 ± 0.11,1.07 ± 0.027,1.12 ± 0.033,1.02 ± 0.042,0.952 ± 0.077,0.963 ± 0.03,0.971 ± 0.12
